Assay results as given in ChEMBL document CHEMBL1201862, “PubChem BioAssay data set” (2004).
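Cells were grown in 96-well plates and exposed to each compound for 48 hours at five concentrations; endpoints were interpolated linearly between bracketing concentrations, or set to the highest concentration if not reached. The concentration for 50% growth inhibition is given as GI50.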 Active and inactive are the calls of the source. No stated cut-off is given here; in the data, active = GI50 up to about 1.1 µM and inactive = higher.

Tests used:
Test in all cases: DTP human tumour cell line panel, 48 h
K562 = test system: K562
CCRF-CEM = test system: CCRF-CEM
LOX IMVI = test system: LOX IMVI
ACHN = test system: ACHN
OVCAR-4 = test system: OVCAR-4
SN12C = test system: SN12C
SW-620 = test system: SW-620
CAKI-1 = test system: CAKI-1
NCI-H23 = test system: NCI-H23
HOP-62 = test system: HOP-62
SF-539 = test system: SF-539
NCI/ADR-RES = test system: NCI/ADR-RES
SK-MEL-5 = test system: SK-MEL-5
RPMI-8226 = test system: RPMI-8226
TK-10 = test system: TK-10
HOP-92 = test system: HOP-92
A498 = test system: A498
SF-268 = test system: SF-268
PC-3 = test system: PC-3
RXF 393 = test system: RXF 393

Measured: GI50

Cn1c(=O)c2nc(CCCCc3nc4ccccc4[nH]3)[nH]c2n(C)c1=O
inactive: K562 > 100 µM | CCRF-CEM > 100 µM | LOX IMVI > 100 µM | ACHN > 100 µM | OVCAR-4 > 100 µM | SN12C > 100 µM | SW-620 > 100 µM | CAKI-1 50.8 µM | NCI-H23 > 100 µM | HOP-62 > 100 µM | SF-539 17 µM | NCI/ADR-RES > 100 µM | SK-MEL-5 > 100 µM | RPMI-8226 > 100 µM | TK-10 > 100 µM | HOP-92 21.4 µM | A498 > 100 µM | SF-268 > 100 µM | PC-3 > 100 µM | RXF 393 > 100 µM

Cc1[nH]c(-c2ccccc2)c(O)c1C(=O)OC1CC(C)CCC1C(C)C (stereo unspecified)
inactive: K562 50 µM | CCRF-CEM 11 µM | ACHN 16.4 µM | OVCAR-4 13.4 µM | SN12C 15.7 µM | SW-620 15.7 µM | CAKI-1 17.7 µM | NCI-H23 13.4 µM | HOP-62 15.3 µM | SF-539 16.2 µM | NCI/ADR-RES 14.7 µM | SK-MEL-5 16.6 µM | RPMI-8226 15.3 µM | HOP-92 17.6 µM | A498 18.6 µM | SF-268 15.3 µM | PC-3 13.8 µM | RXF 393 11.7 µM

Cc1cc(=O)n2nc(SCc3ccccc3)sc2n1
inactive: K562 18.2 µM | CCRF-CEM > 100 µM | LOX IMVI 77.4 µM | ACHN 22.8 µM | OVCAR-4 > 100 µM | SN12C > 100 µM | SW-620 > 100 µM | NCI-H23 > 100 µM | HOP-62 > 100 µM | SF-539 > 100 µM | NCI/ADR-RES > 100 µM | SK-MEL-5 43.2 µM | RPMI-8226 > 100 µM | TK-10 34.4 µM | HOP-92 94.8 µM | A498 > 100 µM | SF-268 > 100 µM | PC-3 > 100 µM | RXF 393 60.3 µM

CCSc1s/c(=N/c2ccc(/N=c3\sc(C)c(SC)s3)cc2)sc1-c1ccc(C)cc1
inactive: K562 > 100 µM | CCRF-CEM > 100 µM | LOX IMVI > 100 µM | ACHN > 100 µM | OVCAR-4 > 100 µM | SN12C > 100 µM | SW-620 > 100 µM | CAKI-1 > 100 µM | NCI-H23 > 100 µM | HOP-62 > 100 µM | SF-539 > 100 µM | NCI/ADR-RES > 100 µM | SK-MEL-5 > 100 µM | RPMI-8226 > 100 µM | TK-10 > 100 µM | HOP-92 > 100 µM | A498 > 100 µM | SF-268 > 100 µM | PC-3 > 100 µM | RXF 393 > 100 µM

O=CN1CCN(C(=O)c2cc(Cl)cc(Cl)c2)C1=S
inactive: K562 14.8 µM | CCRF-CEM 5.38 µM | LOX IMVI 7.13 µM | ACHN 16.9 µM | OVCAR-4 17.1 µM | SN12C 15.6 µM | SW-620 19 µM | CAKI-1 13.3 µM | NCI-H23 17.2 µM | HOP-62 15.2 µM | SF-539 20.2 µM | NCI/ADR-RES 28.9 µM | RPMI-8226 2.44 µM | TK-10 15.3 µM | HOP-92 17.9 µM | A498 15.3 µM | SF-268 16.1 µM | PC-3 16.6 µM | RXF 393 16 µM

CC(Oc1ccc(Cl)cc1Cl)C(=O)NN1C(=O)CC(=O)NC1=S (stereo unspecified)
inactive: K562 > 100 µM | LOX IMVI 80 µM | ACHN 88.1 µM | OVCAR-4 > 100 µM | SN12C > 100 µM | SW-620 > 100 µM | CAKI-1 82 µM | NCI-H23 > 100 µM | HOP-62 > 100 µM | SF-539 > 100 µM | NCI/ADR-RES > 100 µM | SK-MEL-5 > 100 µM | RPMI-8226 46 µM | TK-10 > 100 µM | HOP-92 39.6 µM | A498 90.8 µM | SF-268 > 100 µM | PC-3 > 100 µM | RXF 393 > 100 µM

CCOC(=O)c1cc(C#N)[nH]c1-c1ccsc1
inactive: K562 25.6 µM | CCRF-CEM 21.5 µM | LOX IMVI 36.2 µM | ACHN 39.5 µM | OVCAR-4 35.6 µM | SN12C 54.7 µM | SW-620 31.3 µM | CAKI-1 50.7 µM | NCI-H23 35.5 µM | HOP-62 59.8 µM | SF-539 28.6 µM | NCI/ADR-RES 32.4 µM | SK-MEL-5 34.9 µM | RPMI-8226 23.6 µM | TK-10 38.5 µM | HOP-92 38.6 µM | A498 42.7 µM | SF-268 22.8 µM | PC-3 25.5 µM | RXF 393 17.3 µM

Cc1cn(CCCCOC(=O)NC(CCCNC(=N)N)C(=O)O)c(=O)[nH]c1=O (stereo unspecified)
inactive: K562 > 100 µM | CCRF-CEM > 100 µM | LOX IMVI > 100 µM | ACHN > 100 µM | OVCAR-4 > 100 µM | SN12C > 100 µM | SW-620 > 100 µM | CAKI-1 > 100 µM | NCI-H23 > 100 µM | HOP-62 > 100 µM | SF-539 > 100 µM | NCI/ADR-RES > 100 µM | RPMI-8226 > 100 µM | TK-10 > 100 µM | HOP-92 > 100 µM | A498 > 100 µM | SF-268 > 100 µM | PC-3 > 100 µM | RXF 393 > 100 µM

O=C1C(C(O)(C(F)(F)Cl)C(F)(F)Cl)CCC1C(O)(C(F)(F)Cl)C(F)(F)Cl (stereo unspecified)
inactive: K562 > 10 µM | LOX IMVI 3.94 µM | ACHN 3.81 µM | OVCAR-4 3.4 µM | SN12C 6.87 µM | SW-620 4.15 µM | CAKI-1 3.4 µM | NCI-H23 2.8 µM | HOP-62 5.57 µM | SF-539 2.74 µM | NCI/ADR-RES > 10 µM | SK-MEL-5 5.94 µM | RPMI-8226 > 10 µM | TK-10 5.52 µM | HOP-92 2.09 µM | A498 3.85 µM | SF-268 3.57 µM | PC-3 4.53 µM | RXF 393 5.05 µM

CN(C)C1(N(C)C)Oc2c(c(=O)n(C)c(=O)n2C)C(c2ccccc2Br)C1(F)F (stereo unspecified)
inactive: K562 > 100 µM | CCRF-CEM > 100 µM | LOX IMVI > 100 µM | ACHN > 100 µM | OVCAR-4 > 100 µM | SW-620 > 100 µM | CAKI-1 > 100 µM | NCI-H23 > 100 µM | HOP-62 > 100 µM | SF-539 > 100 µM | NCI/ADR-RES > 100 µM | SK-MEL-5 > 100 µM | RPMI-8226 > 100 µM | TK-10 > 100 µM | HOP-92 > 100 µM | A498 > 100 µM | SF-268 > 100 µM | PC-3 > 100 µM | RXF 393 > 100 µM

COc1ccc(Oc2cnn(C(Br)(Br)C(C)=O)c(=O)c2Br)cc1
inactive: K562 3.85 µM | CCRF-CEM 1.82 µM | LOX IMVI 11 µM | ACHN 13.6 µM | OVCAR-4 17.4 µM | SN12C 15 µM | SW-620 4.56 µM | CAKI-1 10.8 µM | NCI-H23 17.9 µM | HOP-62 16.7 µM | SF-539 12.4 µM | NCI/ADR-RES 18.5 µM | SK-MEL-5 16 µM | RPMI-8226 3.14 µM | TK-10 13.5 µM | HOP-92 14.7 µM | A498 24.8 µM | SF-268 14.6 µM | PC-3 14.1 µM | RXF 393 6.08 µM

CC1(C)OCC(C2OC(=O)C(OCc3ccccc3)=C2OCc2ccccc2)O1 (stereo unspecified)
inactive: K562 27.4 µM | CCRF-CEM 37.8 µM | LOX IMVI 31.2 µM | ACHN 31.5 µM | OVCAR-4 42.2 µM | SN12C 39.4 µM | SW-620 51.8 µM | CAKI-1 45.2 µM | NCI-H23 18.4 µM | HOP-62 81.8 µM | SF-539 72.6 µM | NCI/ADR-RES 35.2 µM | SK-MEL-5 17.2 µM | RPMI-8226 24 µM | TK-10 44.3 µM | HOP-92 23 µM | A498 22.1 µM | SF-268 83.2 µM | PC-3 21 µM | RXF 393 49.1 µM

Cn1c2c(c3ccccc31)CCN1C(=O)CCC21 (stereo unspecified)
inactive: K562 > 10 µM | CCRF-CEM > 10 µM | LOX IMVI > 10 µM | ACHN > 10 µM | OVCAR-4 > 10 µM | SN12C > 10 µM | SW-620 > 10 µM | CAKI-1 > 10 µM | NCI-H23 > 10 µM | HOP-62 > 10 µM | SF-539 > 10 µM | NCI/ADR-RES > 10 µM | SK-MEL-5 > 10 µM | RPMI-8226 > 10 µM | TK-10 > 10 µM | HOP-92 > 10 µM | A498 > 10 µM | SF-268 > 10 µM | PC-3 > 10 µM | RXF 393 > 10 µM

COc1cc(/C=[N+](\[O-])c2ccccc2Cl)ccc1OC(=S)S
inactive: K562 25.9 µM | LOX IMVI 36.9 µM | ACHN 34 µM | OVCAR-4 3.01 µM | SN12C 45.7 µM | SW-620 37.1 µM | CAKI-1 31.7 µM | NCI-H23 28.5 µM | HOP-62 39.9 µM | SF-539 68.7 µM | NCI/ADR-RES 26.7 µM | SK-MEL-5 16.6 µM | RPMI-8226 29.2 µM | TK-10 64.4 µM | HOP-92 10.1 µM | A498 18.9 µM | SF-268 42.7 µM | PC-3 38.2 µM | RXF 393 26.4 µM
